{"source": "patent US12168000B2", "about": "“Methods of treating pain” (Scilex Holding Company, priority 2020, dated 2024)", "origin": "cited, not measured here", "key": {"[1]": {"settings": "hydrophobic and highly permeable drug"}, "[2]": {"settings": "upon oral administration"}}, "data": [{"smiles": "Cc1ccc(-c2cc(C(F)(F)F)nn2-c2ccc(S(N)(=O)=O)cc2)cc1", "note": "[Celecoxib, 4-[5-(4-methylphenyl)-3-(trifluoromethyl)-1H-pyrazol-1-yl] benzenesulfonamide]", "values": [{"measurement": "class of the biopharmaceutics classification system", "setting": "[1]", "value": "class II"}, {"measurement": "time for peak plasma concentrations", "setting": "[2]", "value": "approximately 3.0 hours"}]}]}
